In US8008303B2, “Biphenyl derivatives and their use in treating hepatitis C” (AstraZeneca AB, priority 2005, dated 2011):

Legend:
[1] = tested on: HCV replicon cells Huh 9B; assay: HCV replicon assay (luciferase readout); format: cell-based; conditions: Hepatitis C virus, 72 h, concentration reducing replicon level (luciferase activity) by 50% vs untreated cell control; 72 h incubation
Method in brief: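 Compounds, made up at twice final strength (final DMSO 1%), were added to subgenomic replicon cells one day after plating. Incubation then ran 72 h at 37 °C, 5% CO2, without G418. Replication was quantified as firefly luciferase luminescence in lysed cells, with cytotoxicity assessed on a duplicate clear plate.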

[2] = tested on: HCV replicon cells Huh 9B; format: cell-based; conditions: concentration reducing total cell area by 50% relative to DMSO controls; methylene blue, absorbance 620 nm; 72 h incubation

Compound | IC50 [1] [nM] | TD50 [2]
Cc1cccc(CNC(=O)c2ccc(-c3cc(NC(=O)c4ccncc4)ccc3C)cc2)c1 [Example 215, N-[6-Methyl-4′-(3-methyl-benzylcarbamoyl)-biphenyl-3-yl]-isonicotinamide] | > 5000 | * (* < 50 μM)
Cc1ccc(NC(=O)C2CC2)cc1-c1ccc(C(=O)NCc2cccc(Cl)c2)cc1 [Example 216, 5′-(Cyclopropanecarbonyl-amino)-2′-methyl-biphenyl-4-carboxylic acid 3-chloro-benzylamide] | > 5000 | * (* < 50 μM)
Cc1ccc(NC(=O)C2CC2)cc1-c1ccc(C(=O)NCc2ccc(N3CCN(C)CC3)cc2)cc1 [Example 217, 5′-(Cyclopropanecarbonyl-amino)-2′-methyl-biphenyl-4-carboxylic acid 4-(4-methyl-piperazin-1-yl)-benzylamide] | > 5000 | * (* < 50 μM)
Cc1ccc(NC(=O)C2CC2)cc1-c1ccc(C(=O)Nc2ccc(-n3cncn3)cc2)cc1 [Example 218, 5′-(Cyclopropanecarbonyl-amino)-2′-methyl-biphenyl-4-carboxylic acid (4-[1,2,4]triazol-1-yl-phenyl)-amide] | < 1000 | * (* < 50 μM)
Cc1ccc(NC(=O)C2CCCCC2)cc1-c1ccc(C(=O)Nc2ccc(-n3cncn3)cc2)cc1 [Example 219, 5′-(Cyclohexanecarbonyl-amino)-2′-methyl-biphenyl-4-carboxylic acid (4-[1,2,4]triazol-1-yl-phenyl)-amide] | 1000 to 5000 | * (* < 50 μM)
CCC1(c2ccc(NC(=O)c3ccc(-c4cc(NC(=O)C5CC5)ccc4C)cc3)cc2)CCC(=O)NC1=O (stereo not drawn) [Example 220, 5′-(Cyclopropanecarbonyl-amino)-2′-methyl-biphenyl-4-carboxylic acid [4-(3-ethyl-2,6-dioxo-piperidin-3-yl)-phenyl]-amide] | < 1000 | * (* < 50 μM)
CCC1(c2ccc(NC(=O)c3ccc(-c4cc(NC(=O)C5CCCCC5)ccc4C)cc3)cc2)CCC(=O)NC1=O (stereo not drawn) [Example 221, 5′-(Cyclohexanecarbonyl-amino)-2′-methyl-biphenyl-4-carboxylic acid [4-(3-ethyl-2,6-dioxo-piperidin-3-yl)-phenyl]-amide] | < 1000 | * (* < 50 μM)
Cc1ccc(NC(=O)C2CCCCC2)cc1-c1ccc(C(=O)Nc2ccc(CN(C)C)cc2)cc1 [Example 222, 5′-(Cyclohexanecarbonyl-amino)-2′-methyl-biphenyl-4-carboxylic acid (4-dimethylaminomethyl-phenyl)-amide] | 1000 to 5000 | * (* < 50 μM)
Cc1ccc(NC(=O)C2CC2)cc1-c1ccc(C(=O)Nc2ccc(CN(C)C)cc2)cc1 [Example 223, 5′-(Cyclopropanecarbonyl-amino)-2′-methyl-biphenyl-4-carboxylic acid (4-dimethylaminomethyl-phenyl)-amide] | 1000 to 5000 | * (* < 50 μM)
Cc1ccc(NC(=O)C2CC2)cc1-c1ccc(C(=O)Nc2ccccc2CN2CCCCC2)cc1 [Example 224, 5′-(Cyclopropanecarbonyl-amino)-2′-methyl-biphenyl-4-carboxylic acid (2-piperidin-1-ylmethyl-phenyl)-amide] | 1000 to 5000 | * (* < 50 μM)
Cc1ccc(NC(=O)C2CC2)cc1-c1ccc(C(=O)Nc2cccc(CN(C)C)c2)cc1 [Example 225, 5′-(Cyclopropanecarbonyl-amino)-2′-methyl-biphenyl-4-carboxylic acid (3-dimethylaminomethyl-phenyl)-amide] | > 5000 | * (* < 50 μM)
Cc1ccc(NC(=O)C2CCCCC2)cc1-c1ccc(C(=O)Nc2ccc(CN3CCOCC3)cc2)cc1 [Example 226, 5′-(Cyclohexanecarbonyl-amino)-2′-methyl-biphenyl-4-carboxylic acid (4-morpholin-4-ylmethyl-phenyl)-amide] | < 1000 | * (* < 50 μM)
Cc1ccc(NC(=O)C2CCCCC2)cc1-c1ccc(C(=O)Nc2ccc(CN3CCCC3)cc2)cc1 [Example 227, 5′-(Cyclohexanecarbonyl-amino)-2′-methyl-biphenyl-4-carboxylic acid (4-pyrrolidin-1-ylmethyl-phenyl)-amide] | 1000 to 5000 | * (* < 50 μM)
Cc1ccc(NC(=O)C2CC2)cc1-c1ccc(C(=O)Nc2ccc(CN3CCCCC3)cc2)cc1 [Example 228, 5′-(Cyclopropanecarbonyl-amino)-2′-methyl-biphenyl-4-carboxylic acid (4-piperidin-1-ylmethyl-phenyl)-amide] | 1000 to 5000 | * (* < 50 μM)
Cc1ccc(NC(=O)C2CC2)cc1-c1ccc(C(=O)Nc2ccc(CN3CCCC3)cc2)cc1 [Example 230, 5′-(Cyclopropanecarbonyl-amino)-2′-methyl-biphenyl-4-carboxylic acid (4-pyrrolidin-1-ylmethyl-phenyl)-amide] | 1000 to 5000 | * (* < 50 μM)
Cc1ccc(NC(=O)C2CCCCC2)cc1-c1ccc(C(=O)Nc2ccc(-c3ccno3)cc2)cc1 [Example 231, 5′-(Cyclohexanecarbonyl-amino)-2′-methyl-biphenyl-4-carboxylic acid (4-isoxazol-5-yl-phenyl)-amide] | > 5000 | * (* < 50 μM)
Cc1ccc(NC(=O)C2CCCCC2)cc1-c1ccc(C(=O)Nc2ccc(CO)cc2)cc1 [Example 232, 5′-(Cyclohexanecarbonyl-amino)-2′-methyl-biphenyl-4-carboxylic acid (4-hydroxymethyl-phenyl)-amide] | < 1000 | * (* < 50 μM)
Cc1ccc(NC(=O)c2ccco2)cc1-c1ccc(C(=O)Nc2ccc3cc[nH]c3c2)cc1 [Example 233, Furan-2-carboxylic acid [4′-(1H-indol-6-ylcarbamoyl)-6-methyl-biphenyl-3-yl]-amide] | < 1000 | * (* < 50 μM)
CCCS(=O)(=O)N1CCN(Cc2ccc(NC(=O)c3ccc(-c4cc(NC(=O)[C@H]5CCCCN5)ccc4OC(F)(F)F)cc3)cc2)CC1 [Example 234, (R)-Piperidine-2-carboxylic acid (4′-{4-[4-(propane-1-sulfonyl)-piperazin-1-ylmethyl]-phenylcarbamoyl}-6-trifluoromethoxy-biphenyl-3-yl)-amide] | < 1000 | * (* < 50 μM)
CS(=O)(=O)N1CCN(Cc2ccc(NC(=O)c3ccc(-c4cc(NC(=O)NC5CCCCC5)ccc4OC(F)(F)F)cc3)cc2)CC1 [Example 235, 5′-(3-Cyclohexyl-ureido)-2′-trifluoromethoxy-biphenyl-4-carboxylic acid [4-(4-methanesulfonyl-piperazin-1-ylmethyl)-phenyl]-amide] | < 1000 | * (* < 50 μM)
CCCS(=O)(=O)N1CCN(Cc2ccc(NC(=O)c3ccc(-c4cc(NC(=O)[C@@H]5CCCN5)ccc4OC(F)(F)F)cc3)cc2)CC1 [Example 236, (S)-Pyrrolidine-2-carboxylic acid (4′-{4-[4-(propane-1-sulfonyl)-piperazin-1-ylmethyl]-phenylcarbamoyl}-6-trifluoromethoxy-biphenyl-3-yl)-amide] | 1000 to 5000 | * (* < 50 μM)
CCCS(=O)(=O)N1CCN(Cc2ccc(NC(=O)c3ccc(-c4cc(NC(=O)C5CC5)ccc4OC(F)(F)F)cc3)cc2)CC1 [Example 237, 5′-(Cyclopropanecarbonyl-amino)-2′-trifluoromethoxy-biphenyl-4-carboxylic acid {4-[4-(propane-1-sulfonyl)-piperazin-1-ylmethyl]-phenyl}-amide] | < 1000 | * (* < 50 μM)
CCCS(=O)(=O)N1CCN(Cc2ccc(NC(=O)c3ccc(-c4cc(NC(=O)[C@@H]5CCCCN5)ccc4OC(F)(F)F)cc3)cc2)CC1 [Example 238, (S)-Piperidine-2-carboxylic acid (4′-{4-[4-(propane-1-sulfonyl)-piperazin-1-ylmethyl]-phenylcarbamoyl}-6-trifluoromethoxy-biphenyl-3-yl)-amide] | < 1000 | * (* < 50 μM)
CN1CCN(C(=O)Nc2ccc(OC(F)(F)F)c(-c3ccc(C(=O)Nc4ccc(CN5CCN(S(C)(=O)=O)CC5)cc4)cc3)c2)CC1 [Example 239, 4-Methyl-piperazine-1-carboxylic acid {4′-[4-(4-methanesulfonyl-piperazin-1-ylmethyl)-phenylcarbamoyl]-6-trifluoromethoxy-biphenyl-3-yl}-amide] | < 1000 | * (* < 50 μM)
CNCC(=O)Nc1ccc(OC(F)(F)F)c(-c2ccc(C(=O)Nc3ccc(CN4CCN(S(=O)(=O)N(C)C)CC4)cc3)cc2)c1 [Example 240, 5′-(2-Methylamino-acetylamino)-2′-trifluoromethoxy-biphenyl-4-carboxylic acid [4-(4-dimethylsulfamoyl-piperazin-1-ylmethyl)-phenyl]-amide] | < 1000 | * (* < 50 μM)
CS(=O)(=O)N1CCN(Cc2ccc(NC(=O)c3ccc(-c4cc(NC(=O)[C@@H]5CCN5C(=O)O)ccc4OC(F)(F)F)cc3)cc2)CC1 [Example 241, (S)-2-{4′-[4-(4-Methanesulfonyl-piperazin-1-ylmethyl)-phenylcarbamoyl]-6-trifluoromethoxy-biphenyl-3-ylcarbamoyl}-azetidine-1-carboxylic acid] | < 1000 | * (* < 50 μM)
Cc1ccc(NC(=O)C2CCCCC2)cc1-c1ccc(C(=O)Nc2ccc(CCN3CCS(=O)(=O)CC3)cc2)cc1 [Example 242, 5′-(Cyclohexanecarbonyl-amino)-2′-methyl-biphenyl-4-carboxylic acid {4-[2-(1,1-dioxo-1lambda*6*-thiomorpholin-4-yl)-ethyl]-phenyl}-amide] | 1000 to 5000 | * (* < 50 μM)
